Experimental data published in patent publication US10334850B2, “Recombinant microorganism expressing avermectin analogue and use thereof” (Zhejiang Hisun Pharmaceutical Co., Ltd., priority 2014, dated 2019).

System: pine wood nematodes
Experiment: Toxicity assay against pine wood nematodes (immersion method)
Format: in vivo
Settings: 24 h
Description: 3. Activity assay of tenvermectins against pine wood nematodes: The indoor activities of sixteen-membered macrolide compounds such as tenvermectins, avermectins, ivermectin, milbemycins, emamectin benzoate were assayed, wherein pine wood nematodes were used as the test insects. The aim was to compare the difference in activities of such medicaments on pine wood nematodes.
Test medicaments: five kinds of medicaments, i.e. 0.5% avermectins emulsifiable concentrate, 0.5% tenvermectins emulsifiable concentrate, 0.5% ivermectin emulsifiable concentrate, 2% milbemycins emulsifiable concentrate, 2.5% emamectin benzoate microemulsion.
Test Method: The immersion method was adopted. Five mass concentrations 2, 5, 10, 20, 50 mg/L were set for each of the medicaments, and each concentration was repeated for three times. The experimental results were subjected to statistics after 24 h (see Table 5).

| Substance | Mortality at different concentrations (mg/L, %) (2 mg/L) [%] | Mortality at different concentrations (mg/L, %) (5 mg/L) [%] | Mortality at different concentrations (mg/L, %) (10 mg/L) [%] | Mortality at different concentrations (mg/L, %) (20 mg/L) [%] | Mortality at different concentrations (mg/L, %) (50 mg/L) [%] |
| --- | --- | --- | --- | --- | --- |
| ivermectin | 18.52 | 42.55 | 57.47 | 58.33 | 78.94 |
| emamectin benzoate | 48.27 | 61.68 | 67.44 | 75 | 86.67 |
